Data set [1] is described as follows: method code SF-RC, from DOI: 10.1016/j.nucmedbio.2005.06.001, PMID: 16253804. Conditions: pH 7.4.
Data set [2] is described as follows: method code SF-AS, from DOI: 10.1016/j.bmc.2007.10.035, PMID: 18029186. The settings on record: pH 7.4.
Data set [3] in a line: method code SF-RC, from DOI: 10.1016/j.nucmedbio.2016.01.003, PMID: 27067043. Conditions: pH 7.4.
Data set [4] is described as follows: method code SF-RC, from DOI: 10.1002/jlcr.1076. The settings on record: pH 7.4.
Data set [5] in a line: method code SF-EN, from DOI: 10.1016/s0022-2275(20)42614-8, PMID: 2280184. Conditions: pH 1.0.
A short description of data set [6]: method code SF-RC, from DOI: 10.1016/0361-9230(85)90153-4, PMID: 2413968.
Data set [7] in a line: method code SF-RC, from DOI: 10.1016/j.nucmedbio.2003.12.003, PMID: 15093819. Conditions: pH 7.0.
Data set [8] in a line: method code SF-AS, from DOI: 10.1093/oxfordjournals.jbchem.a131041, PMID: 939756. Conditions: pH 7.4.
Data set [9] can be described thus: method code SF-AS, from DOI: 10.1016/0006-2952(90)90117-4, PMID: 2344368. The settings on record: pH 7.5.
Data set [10] is described as follows: method code RP-TLC, from DOI: 10.1016/s0021-9673(03)00617-4, PMID: 12830921.
Data set [11] in a line: method code SF-AS, from DOI: 10.1016/j.bmcl.2014.05.029, PMID: 24930836.
Data set [12] can be described thus: method code SF-HPLC, from DOI: 10.1016/0168-3659(88)90058-2. Conditions: pH 7.4.
Data set [13] in a line: method code SF-HPLC, from DOI: 10.1016/0378-5173(89)90313-x. The settings on record: pH 7.4.
A short description of data set [14]: method code SF-FL, from DOI: 10.1016/0006-2952(96)00248-1, PMID: 8687500.
Experiment in data set [15]: not given
This is another data set of the same source.

A short description of data set [16]: method code SF-AS, from DOI: 10.1016/s0022-3565(25)38749-5, PMID: 8182532. The settings on record: pH 7.4.
Data set [17] can be described thus: method code SF-HPLC, from DOI: 10.1248/cpb.38.1906, PMID: 2268893. Conditions: pH 6.9.
Data set [18] is described as follows: method code SF-RC, from DOI: 10.1016/j.nucmedbio.2016.05.003, PMID: 27236283. The settings on record: pH 7.4.
The nature of data set [19]: method code SF, from DOI: 10.1002/ps.2780350215.
A short description of data set [20]: method code RP-HPLC, from DOI: 10.1021/jm00011a007, PMID: 7540207.
Data set [21] in a line: method code SF-HPLC, from DOI: 10.1002/jps.2600800905, PMID: 1800703.

Where a SMILES comes first, the peptide text is derived from it.

With `CNc1ccc(C=Cc2ccc(OCCOCCOCCOCCOCCF)cc2)cc1`, the pH-dependent lipophilicity (logD) (usually lipophilicity at a set pH, counting ionised and neutral species) in [1] stood at 2.28.

Molecule `CC(=O)OCC1OC(OCCN(C)C(=O)n2ccnc2[N+](=O)[O-])C(OC(C)=O)C(OC(C)=O)C1OC(C)=O` (centres undefined) yielded a logD in data set [2] of -0.98.

As for `CC(=O)NC1C(OCCN(C)C(=O)Cn2ccnc2[N+](=O)[O-])OC(COC(C)=O)C(OC(C)=O)C1OC(C)=O` (centres undefined), the logD in data set [2] was -1.29.

Consider `C=CC(=O)Nc1ccc(S(=O)(=O)N2CCN(C(=O)C34CC5CC(CC(C5)C3)C4)CC2)cc1`, for which, in [3], the logD was found to be 2.67.

On to `COc1ccc2c(c1)C1(C)CCC3c4ccc(O)c(I)c4CCC3C1C2` (centres undefined), for which, in data set [4], the logD came out at 2.5.

In the case of `CC(CCC(=O)NCC(=O)O)C1CCC2C3C(O)CC4CC(O)CCC4(C)C3CC(C)(O)C12` (centres undefined), the logD in [5] was found to be 1.9.

For the molecule `CC(C)C[C@H](NC(=O)[C@@H]1CCCN1C(=O)[C@@H](N)Cc1ccc(O)cc1)C(=O)NCC(N)=O` (H-YPLG-NH2), the logP – broadly, the decadic logarithm of the partition coefficient of the neutral form, usually between octanol and water – in data set [6] is 0.06.

Consider `O=C(NCCc1ccc(S(=O)(=O)NC2CCCCC2)cc1)c1cc(Cl)ccc1OCCF`, for which the logD in data set [7] was determined as 2.09.

In [6], `NC(=O)CC[C@@H]1NC(=O)[C@H](Cc2ccccc2)NC(=O)[C@H](Cc2ccc(O)cc2)NC(=O)[C@@H](N)CSSC[C@@H](C(=O)N2CCC[C@H]2C(=O)N[C@@H](CCCN=C(N)N)C(=O)NCC(N)=O)NC(=O)[C@H](CC(N)=O)NC1=O` registered a logP of -2.15.

The molecule `COC1=C(C2=C(OC)C(=O)c3cc4c(c(O)c3C2=O)C(=O)O[C@H](C)C4)C(=O)c2c(cc3c(c2O)C(=O)O[C@H](C)C3)C1=O` came in with a logD in data set [8] of 0.37.

As to `COc1cccc2c1C(=O)c1c(O)c3c(c(O)c1C2=O)C[C@@](O)(C(=O)CO)C[C@@H]3O[C@H]1C[C@H](NC(C)=O)[C@H](O)[C@H](C)O1`, the logD in data set [9] worked out at 1.27.

For `CNc1ccc(C=Cc2ccc(OCCOCCOCCOCCF)cc2)cc1`, in [1], the logD worked out at 2.05.

`COC1=C(C2=C(OC)C(=O)c3c4c(cc(OC)c3C2=O)CC(C)OC4=O)C(=O)c2c(OC)cc3c(c2C1=O)C(=O)OC(C)C3` (centres undefined) displayed a logD in [8] of 0.69.

`CCC12C=C(C(=O)OCCCO)n3c4c(c5ccccc53)CCN(CCC1)C42` (centres undefined) registered a logP in [10] of 3.89.

In data set [9], `COc1cccc2c1C(=O)c1c(O)c3c(c(O)c1C2=O)CC(O)(CCO)CC3OC1CC(NC(C)=O)C(O)C(C)O1` (centres undefined) returned a logD of 1.56.

Molecule `Cc1cc(=O)oc2cc(OCC(O)Cn3nnc4ccccc43)cc(OCC(O)Cn3nnc4ccccc43)c12` (centres undefined) showed a logP in data set [11] of 0.48.

In turn, `COc1ccc2c(c1)C1(C)CCC3c4cc(I)c(O)cc4CCC3C1C2` (centres undefined) yielded a logD in [4] of 1.8.

With `C#CC1(OC(=O)OCCCCC(O)CO)CCC2C3CCC4=CC(=O)CCC4C3CCC21CC` (centres undefined), in [12], the logD worked out at 3.75.

In the case of `CN1C=CCC(C(=O)NC2CCC(OC(=O)CCCc3ccc(N(CCCl)CCCl)cc3)CC2)=C1` (centres undefined), the pH-dependent lipophilicity (logD) in data set [13] was 2.85.

`CC(=O)O[C@H]1C(=O)[C@@]2(C)[C@H]([C@H](OC(=O)c3ccccc3)[C@]3(O)C[C@H](OC(=O)[C@H](O)Cc4ccccc4)C(C)=C1C3(C)C)[C@]1(OC(C)=O)CO[C@@H]1C[C@@H]2O`: the logP is 2.9.

Consider `COc1cccc2c1C(=O)c1c(O)c3c(c(O)c1C2=O)CC(O)(C(=O)CO)CC3OC1CC(NC(=O)OCc2ccc(OC3OC(C(=O)O)C(O)C(O)C3O)c([N+](=O)[O-])c2)C(O)C(C)O1` (centres undefined), for which the logP in data set [14] is -0.74.

For the molecule `CCN(CC)C(=O)C(C#N)=Cc1cc(OC(=O)CC(=O)C(C)(C)C)c(OC(=O)CC(=O)C(C)(C)C)c([N+](=O)[O-])c1`, in data set [15], the logP is 3.99.

The molecule `CC(=O)O[C@H]1C(=O)[C@@]2(C)[C@H]([C@H](OC(=O)c3ccccc3)[C@]3(O)C[C@H](OC(=O)[C@@H](O)Cc4ccccc4)C(C)=C1C3(C)C)[C@]1(OC(C)=O)CO[C@@H]1C[C@@H]2O` displayed a logP of 2.9.

`CCCCCCCCCCOc1ccc(C(=O)Nc2cc(C(=O)NCCCC)ccc2SC)cc1` had a logD in data set [16] of 5.2.

With `CON=C(C(=O)NC1C(=O)N2C(C(=O)OCOC(=O)C(C)(C)C)=C(CN(C=O)C(C)=C(CCC(C)=O)SC(C)=O)CSC12)c1csc(N)n1` (centres undefined), the logD in data set [17] was found to be 2.16.

Molecule `COc1cc(NCCCF)cc(OC)c1NC(=O)c1ccc(Oc2cc3c(cc2C)CCC3(C)C)o1` returned a logD in data set [18] of 1.51.

In data set [15], `CCN(CC)C(=O)C(C#N)=Cc1cc(OCOC(=O)C(C)(C)C)c(OCOC(=O)C(C)(C)C)c([N+](=O)[O-])c1` displayed a logP of 3.86.

As to `CON=C(C(=O)NC1C(=O)N2C(C(=O)OCOC(=O)C(C)(C)C)=C(CN(C=O)C(C)=C3CCOC(=O)S3)CSC12)c1csc(N)n1` (centres undefined), the logD in data set [17] was found to be 1.37.

Molecule `CCc1cccc(CC)c1NC(=O)c1c(C)n(CCc2ccccc2)c(C)c(Br)c1=O` came in with a logP in [19] of 3.63.

`CCC12C=C(C(=O)OCCO)n3c4c(c5ccccc53)CCN(CCC1)C42` (centres undefined): in data set [10], the logP came out at 3.62.

For `C=CC(=O)NCCCCC(NC(=O)OCc1ccccc1)C(=O)N1CCN(c2ccccc2Cl)CC1` (centres undefined), the logD in data set [3] was determined as 3.

With `CCCCCN=c1ccn(Cc2cccc3ccccc23)c2cc(Cl)ccc12`, the logP in data set [20] turned out to be 4.01.

Regarding `CCCCn1c(C)cc(=O)c(C(=O)Nc2c(CC)cccc2CC)c1C`, the logP in data set [19] amounted to 2.52.

The molecule `CCCCCN=c1ccn(Cc2ccc3ccccc3c2)c2cc(Cl)ccc12` registered a log partition coefficient (logP) in data set [20] of 4.16.

In data set [21] (pH 2.0), `CCC(C)(C)C(=O)O[C@H]1C[C@@H](C)C=C2C=C[C@H](C)[C@H](CC[C@@H](O)C[C@@H](O)CC(=O)O)[C@H]21` (relative stereo) had a logD of 4.47.

In data set [21] (pH 7.0), `CC[C@H](C)C(=O)O[C@H]1CCC=C2C=C[C@H](C)[C@H](CC[C@@H]3C[C@@H](O)CC(=O)O3)[C@H]21` showed a pH-dependent lipophilicity (logD) of 3.85.

Regarding `O=C(NCCc1ccc(S(=O)(=O)NC2CCCCC2)cc1)c1cc(I)ccc1OCCF`, in data set [7], the logD is 2.15.

In data set [14], `COc1cccc2c1C(=O)c1c(O)c3c(c(O)c1C2=O)CC(O)(C(C)=O)CC3OC1CC(NC(=O)OC2OC(C(=O)O)C(O)C(O)C2O)C(O)C(C)O1` (centres undefined) gave a logP of -2.

Molecule `C#CC1(OC(=O)OCC(O)CO)CCC2C3CCC4=CC(=O)CCC4C3CCC21CC` (centres undefined) showed a logD in data set [12] of 3.22.

`CC(C)CCC(=O)CC1c2ccccc2C(=O)N1c1ccc2ccc(Cl)nc2n1` (centres undefined) had a pH-dependent lipophilicity (logD) in data set [16] of 4.8.

Regarding `CN1C=CCC(C(=O)NCCOC(=O)CCCc2ccc(N(CCCl)CCCl)cc2)=C1`, the logD in data set [13] was found to be 2.16.

Regarding `COc1cc(OCCF)cc(OC)c1NC(=O)c1ccc(Oc2cc3c(cc2C)CCC3(C)C)o1`, the logD in data set [18] came out at 2.1.

`Cc1cc2ncn(CC(O)COc3cc(OCC(O)Cn4cnc5cc(C)c(C)cc54)c4c(C)cc(=O)oc4c3)c2cc1C` (centres undefined) had a logP in data set [11] of 0.61.

`C[C@H](CCC(=O)O)[C@H]1CC[C@H]2[C@@H]3C[C@H](O)[C@@H]4C[C@H](O)CC[C@]4(C)[C@H]3C[C@H](O)[C@]12C` registered a logD in data set [5] of 2.8.

Values taken from the SangsterLogP compilation.
